Experimental data from patent US20100168084A1, “Therapeutic compounds and related methods of use” (priority 2008, published 2010).
Read-outs that look alike come from different tables or passages of the source.

Biological target: T1, sirtuin protein (Homo sapiens, UniProt Q96EB6)
T1 sequence (Q96EB6 2-747 limits assumed): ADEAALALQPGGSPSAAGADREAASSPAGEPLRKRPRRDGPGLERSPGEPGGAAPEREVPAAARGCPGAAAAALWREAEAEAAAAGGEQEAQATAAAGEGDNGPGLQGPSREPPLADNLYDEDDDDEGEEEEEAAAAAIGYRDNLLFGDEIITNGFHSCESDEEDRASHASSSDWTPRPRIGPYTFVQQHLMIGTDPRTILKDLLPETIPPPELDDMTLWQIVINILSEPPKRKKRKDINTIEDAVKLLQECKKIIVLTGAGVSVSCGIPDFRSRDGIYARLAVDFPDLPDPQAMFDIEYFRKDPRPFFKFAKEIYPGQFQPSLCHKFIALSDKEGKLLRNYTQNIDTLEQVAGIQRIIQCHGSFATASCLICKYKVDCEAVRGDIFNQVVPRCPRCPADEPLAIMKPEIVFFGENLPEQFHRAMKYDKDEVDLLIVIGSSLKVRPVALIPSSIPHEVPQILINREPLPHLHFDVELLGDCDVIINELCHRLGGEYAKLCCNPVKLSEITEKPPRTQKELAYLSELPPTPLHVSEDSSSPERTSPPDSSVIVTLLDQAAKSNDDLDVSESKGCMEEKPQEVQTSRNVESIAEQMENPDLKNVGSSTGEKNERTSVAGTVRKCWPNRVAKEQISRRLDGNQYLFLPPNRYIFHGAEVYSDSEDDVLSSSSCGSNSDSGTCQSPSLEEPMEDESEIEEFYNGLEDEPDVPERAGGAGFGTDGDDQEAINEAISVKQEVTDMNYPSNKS
Assay: MS assay (IC50 MS ASSAY / ED50 MS / FOLD ACTIVATION MS)
Format: biochemical
Set-up: scale not given here

[1] = Table 4, class symbols A′, A, B, D, NA, legend not given
[2] = class symbols (A′, A, B, D, NA), no legend given
[3] = MS assay, class symbols, key not given
[4] = Table 4, class symbols A′, A, B, C, NA, legend not given

COc1cc(C(=O)Nc2ccccc2-c2nc3ccccc3[nH]2)ccc1CN1CCNCC1 [Compound 558]
A′: ED50 MS ASSAY | ED50 MS ASSAY (Table 4) | ED50 MS ASSAY (Table 4, class symbols) | ED50 MS ASSAY [1] | ED50 MS ASSAY [2]

COc1ccc(C(=O)Nc2ccc(-c3nc4ccncc4o3)s2)c(OC)c1 [Compound 561]
A′: ED50 MS ASSAY | ED50 MS ASSAY (Table 4) | ED50 MS ASSAY (Table 4, class symbols) | ED50 MS ASSAY [1] | ED50 MS ASSAY [2]

COc1cc(OC)cc(C(=O)Nc2ccc(-c3nc4ccncc4o3)s2)c1 [Compound 562]
A′: ED50 MS ASSAY | ED50 MS ASSAY (Table 4) | ED50 MS ASSAY (Table 4, class symbols) | ED50 MS ASSAY [1] | ED50 MS ASSAY [2]

COc1cc(C(=O)Nc2ccccc2-c2nc3ccccc3[nH]2)ccc1CN1CCCC1 [Compound 587]
A′: ED50 MS ASSAY | ED50 MS ASSAY (Table 4) | ED50 MS ASSAY (Table 4, class symbols) | ED50 MS ASSAY [1] | ED50 MS ASSAY [2]

COc1cc(OC)cc(C(=O)Nc2ccccc2-c2nc3cc(CN4CCNCC4)cnc3s2)c1 [Compound 589]
A′: ED50 MS ASSAY | ED50 MS ASSAY (Table 4) | ED50 MS ASSAY (Table 4, class symbols) | ED50 MS ASSAY [1] | ED50 MS ASSAY [2]

Cc1ccc(C(=O)Nc2ccccc2-c2nc3cc(CN4CCNCC4)cnc3s2)cc1C [Compound 591]
A′: ED50 MS ASSAY | ED50 MS ASSAY (Table 4) | ED50 MS ASSAY (Table 4, class symbols) | ED50 MS ASSAY [1] | ED50 MS ASSAY [2]

N#Cc1cccc(C(=O)Nc2ccccc2-c2nc3cc(CN4CCNCC4)cnc3s2)c1 [Compound 592]
A′: ED50 MS ASSAY | ED50 MS ASSAY (Table 4) | ED50 MS ASSAY (Table 4, class symbols) | ED50 MS ASSAY [1] | ED50 MS ASSAY [2]

CN(C)c1cccc(C(=O)Nc2ccccc2-c2nc3cc(CN4CCNCC4)cnc3s2)c1 [Compound 593]
A′: ED50 MS ASSAY | ED50 MS ASSAY (Table 4) | ED50 MS ASSAY (Table 4, class symbols) | ED50 MS ASSAY [1] | ED50 MS ASSAY [2]

O=C(Nc1ccccc1-c1cn2c(CN3CCOCC3)csc2n1)c1cnc2ccccc2n1 [Compound 617]
A′: ED50 MS ASSAY | ED50 MS ASSAY (Table 4) | ED50 MS ASSAY (Table 4, class symbols) | ED50 MS ASSAY [1] | ED50 MS ASSAY [2]

O=C(Nc1ccccc1-c1cn2c(CN3CCCCC3)csc2n1)c1cnc2ccccc2n1 [Compound 618]
A′: ED50 MS ASSAY | ED50 MS ASSAY (Table 4) | ED50 MS ASSAY (Table 4, class symbols) | ED50 MS ASSAY [1] | ED50 MS ASSAY [2]

O=C(Nc1ccccc1-c1cn2c(CN3CCCC3)csc2n1)c1cnc2ccccc2n1 [Compound 619]
A′: ED50 MS ASSAY | ED50 MS ASSAY (Table 4) | ED50 MS ASSAY (Table 4, class symbols) | ED50 MS ASSAY [1] | ED50 MS ASSAY [2]

COc1cc(C(=O)Nc2ccccc2-c2cn3c(CN4CCCC4)csc3n2)cc(OC)c1OC [Compound 620]
A′: ED50 MS ASSAY | ED50 MS ASSAY (Table 4) | ED50 MS ASSAY (Table 4, class symbols) | ED50 MS ASSAY [1] | ED50 MS ASSAY [2]

O=C(Nc1ncccc1-c1cn2c(CN3CCOCC3)csc2n1)c1cnc2ccccc2n1 [Compound 621]
A′: ED50 MS ASSAY | ED50 MS ASSAY (Table 4) | ED50 MS ASSAY (Table 4, class symbols) | ED50 MS ASSAY [1] | ED50 MS ASSAY [2]

O=C(Nc1ccccc1-c1nc2cc(CN3CCNCC3)cnc2s1)c1cnc2ccccc2n1 [Compound 622]
A′: ED50 MS ASSAY | ED50 MS ASSAY (Table 4) | ED50 MS ASSAY (Table 4, class symbols) | ED50 MS ASSAY [1] | ED50 MS ASSAY [2]

O=C(Nc1ccccc1-c1cn2c(CN3CCNCC3)csc2n1)c1cc2ccccc2o1 [Compound 624]
A′: ED50 MS ASSAY | ED50 MS ASSAY (Table 4) | ED50 MS ASSAY (Table 4, class symbols) | ED50 MS ASSAY [1] | ED50 MS ASSAY [2]

O=C(Nc1ccccc1-c1cn2c(CN3CCNCC3)csc2n1)c1cc(-c2ccccc2)ncn1 [Compound 625]
A′: ED50 MS ASSAY | ED50 MS ASSAY (Table 4) | ED50 MS ASSAY (Table 4, class symbols) | ED50 MS ASSAY [1] | ED50 MS ASSAY [2]

O=C(Nc1ccccc1-c1cn2c(CN3CCN(Cc4ccccc4)CC3=O)csc2n1)c1cnc2ccccc2n1 [Compound 628]
A′: ED50 MS ASSAY | ED50 MS ASSAY (Table 4) | ED50 MS ASSAY (Table 4, class symbols) | ED50 MS ASSAY [1] | ED50 MS ASSAY [2]

COc1cc(C(=O)Nc2ccccc2-c2nc3ncccc3o2)ccc1CN1CCOCC1 [Compound 631]
A′: ED50 MS ASSAY | ED50 MS ASSAY (Table 4) | ED50 MS ASSAY (Table 4, class symbols) | ED50 MS ASSAY [1] | ED50 MS ASSAY [2]

O=C(Nc1ccccc1-c1cn2c(CN3CCNCC3)csc2n1)c1cnc2ccccc2c1 [Compound 645]
A′: ED50 MS ASSAY | ED50 MS ASSAY (Table 4) | ED50 MS ASSAY (Table 4, class symbols) | ED50 MS ASSAY [1] | ED50 MS ASSAY [2]

CN(C)CCOCc1csc2nc(-c3ccccc3NC(=O)c3cnc4ccccc4n3)cn12 [Compound 647]
A′: ED50 MS ASSAY | ED50 MS ASSAY (Table 4) | ED50 MS ASSAY (Table 4, class symbols) | ED50 MS ASSAY [1] | ED50 MS ASSAY [2]

O=C(Nc1ccccc1-c1cn2c(CO)csc2n1)c1cnc2ccccc2n1 [Compound 648]
A′: ED50 MS ASSAY | ED50 MS ASSAY (Table 4) | ED50 MS ASSAY (Table 4, class symbols) | ED50 MS ASSAY [1] | ED50 MS ASSAY [2]

CN1CCN(C(=O)Cc2csc3nc(-c4ccccc4NC(=O)c4cnc5ccccc5n4)cn23)CC1 [Compound 649]
A′: ED50 MS ASSAY | ED50 MS ASSAY (Table 4) | ED50 MS ASSAY (Table 4, class symbols) | ED50 MS ASSAY [1] | ED50 MS ASSAY [2]

CC(=O)N1CCN(Cc2csc3nc(-c4ccccc4NC(=O)c4cnc5ccccc5n4)cn23)CC1 [Compound 651]
A′: ED50 MS ASSAY | ED50 MS ASSAY (Table 4) | ED50 MS ASSAY (Table 4, class symbols) | ED50 MS ASSAY [1] | ED50 MS ASSAY [2]

COc1cc(NC(=S)Nc2cc(-c3nc4ncccc4o3)ccn2)cc(OC)c1 [Compound 661]
A′: ED50 MS ASSAY | ED50 MS ASSAY (Table 4) | ED50 MS ASSAY (Table 4, class symbols) | ED50 MS ASSAY [1] | ED50 MS ASSAY [2]

O=C(Nc1ccccc1-c1cn2c(CNCC(O)CO)csc2n1)c1cnc2ccccc2n1 (stereo not drawn) [Compound 676]
A′: ED50 MS ASSAY | ED50 MS ASSAY (Table 4) | ED50 MS ASSAY (Table 4, class symbols) | ED50 MS ASSAY [1] | ED50 MS ASSAY [2]

O=C(Nc1ccccc1-c1cn2c(CCN3CCNCC3)csc2n1)c1cnc2ccccc2n1 [Compound 680]
A′: ED50 MS ASSAY | ED50 MS ASSAY (Table 4) | ED50 MS ASSAY (Table 4, class symbols) | ED50 MS ASSAY [1] | ED50 MS ASSAY [2]

N#Cc1cccc(C(=O)Nc2ccccc2-c2nc3cc(CN4CCOCC4)cnc3s2)c1 [Compound 685]
A′: ED50 MS ASSAY | ED50 MS ASSAY [3] | ED50 MS ASSAY (Table 4) | ED50 MS ASSAY [4]

O=C(Nc1ccccc1-c1cn2c(CN3CCNCC3)csc2n1)c1cc(F)cc(F)c1 [Compound 695]
A′: ED50 MS ASSAY | ED50 MS ASSAY [3] | ED50 MS ASSAY (TABLE 4) | ED50 MS ASSAY (Table 4) | ED50 MS ASSAY [4]

O=C(Nc1ccccc1-c1cn2c(CN3CCNCC3)csc2n1)c1cccc(OC(F)(F)F)c1 [Compound 698]
A′: ED50 MS ASSAY | ED50 MS ASSAY [3] | ED50 MS ASSAY (TABLE 4) | ED50 MS ASSAY (Table 4) | ED50 MS ASSAY [4]
